13 molecules from paper PMC10510716 can be followed below.

Series [1] is described as follows: Paal-Knorr-like closure of a side-chain 1,4-diketone (DOP, unmasked from 5-substituted furan in TFA/m-cresol 9:1) with a side-chain alkylhydrazine (Nu1), then air oxidation to a pyridazinium staple; crude redissolved in mQ water, pH adjusted to ~7.5. Particulars: the molecule shown is the open-chain precursor, pH ~7.5, 5.0 mM.
Series [2] is described as follows: Paal-Knorr pyrrole formation between a side-chain 1,4-diketone (DOP1, unmasked from 5-methylfuran in TFA/m-cresol 9:1) and a side-chain hydrazide (Nu2) or aminooxy group (Nu5); crude redissolved in mQ water. The conditions noted are these: the molecule shown is the open-chain precursor, pH ~2.5, 5.0 mM.

Molecule `CC(=O)CCC(=O)CCC(=O)NCCC[C@H](NC(C)=O)C(=O)N[C@@H](Cc1c[nH]c2ccccc12)C(=O)N[C@@H](CCCNC(=N)N)C(=O)NCC(=O)N[C@@H](CC(=O)O)C(=O)N[C@@H](Cc1ccc(O)cc1)C(=O)N[C@@H](CO)C(=O)N[C@@H](CCCNC(=O)CNN)C(N)=O` [Ac-Orn(4,7-dioxooctanoyl)*-W-R-G-D-Y-S-Orn(COCH2NHNH2)*-NH2] registered a ring closure, overall yield in series [1] (38-membered ring) of 16.7%.

In the case of `CC(=O)CCC(=O)CCC(=O)NCCC[C@H](NC(C)=O)C(=O)N[C@@H](Cc1c[nH]c2ccccc12)C(=O)N[C@@H](CCCNC(=N)N)C(=O)NCC(=O)N[C@@H](CC(=O)O)C(=O)N[C@@H](Cc1ccc(O)cc1)C(=O)N[C@@H](CO)C(=O)N[C@@H](CCCNC(=O)CON)C(N)=O` [Ac-Orn(4,7-dioxooctanoyl)*-W-R-G-D-Y-S-Orn(COCH2ONH2)*-NH2], in series [2] (38-membered ring), the ring closure, overall yield turned out to be 5.2%.

`CC(=O)CCC(=O)CCC(=O)NCCC[C@H](NC(=O)[C@H](Cc1ccc(O)cc1)NC(C)=O)C(=O)N[C@@H](CCCNC(=N)N)C(=O)NCC(=O)N[C@@H](CC(=O)O)C(=O)N[C@@H](CCCNC(=O)CNN)C(=O)N[C@@H](CO)C(=O)N[C@@H](Cc1c[nH]c2ccccc12)C(N)=O` [Ac-Y-Orn(4,7-dioxooctanoyl)*-R-G-D-Orn(COCH2NHNH2)*-S-W-NH2] displayed a ring closure, overall yield in series [1] (29-membered ring) of 16.8%.

Consider `CC[C@H](C)[C@H](NC(=O)[C@H](CCCNC(=O)CNN)NC(=O)c1ccc(NC(C)=O)cc1)C(=O)N[C@@H](C)C(=O)N[C@@H](C)C(=O)N[C@@H](CC(C)C)C(=O)N[C@@H](CCCCN)C(=O)N[C@@H](CCC(=O)O)C(=O)N[C@@H](CCCCN)C(=O)N[C@H](C(=O)N[C@@H](CCCNC(=O)CNN)C(=O)N[C@@H](C)C(=O)N[C@@H](CC(C)C)C(=O)N[C@@H](CCCCN)C(=O)N[C@@H](CCC(=O)O)C(=O)N[C@@H](CCCCN)C(=O)N[C@H](C(=O)N[C@@H](CCCNC(=O)CCC(=O)CCC(C)=O)C(=O)N[C@@H](C)C(=O)N[C@@H](CC(C)C)C(=O)N[C@@H](CCCCN)C(=O)N[C@@H](CCC(=O)O)C(N)=O)[C@@H](C)CC)[C@@H](C)CC`, for which the ring closure, overall yield in series [1] (38-membered ring) was 6.9%.

In series [2] (29-membered ring), `CC(=O)CCC(=O)CCC(=O)NCCC[C@H](NC(=O)[C@H](Cc1ccc(O)cc1)NC(C)=O)C(=O)N[C@@H](CCCNC(=N)N)C(=O)NCC(=O)N[C@@H](CC(=O)O)C(=O)N[C@@H](CCCNC(=O)CON)C(=O)N[C@@H](CO)C(=O)N[C@@H](Cc1c[nH]c2ccccc12)C(N)=O` [Ac-Y-Orn(4,7-dioxooctanoyl)*-R-G-D-Orn(COCH2ONH2)*-S-W-NH2] registered a ring closure, overall yield of 8.1%.

The molecule `CC(=O)CCC(=O)CCC(=O)NCCC[C@H](NC(=O)[C@H](Cc1ccc(O)cc1)NC(C)=O)C(=O)N[C@@H](CCCNC(=N)N)C(=O)NCC(=O)N[C@@H](CC(=O)O)C(=O)N[C@@H](CCCNC(=O)CCC(=O)NN)C(=O)N[C@@H](CO)C(=O)N[C@@H](Cc1c[nH]c2ccccc12)C(N)=O` had a ring closure, overall yield in series [2] (31-membered ring) of 2.3%.

Regarding `COc1ccc(C(=O)CCC(=O)CCC(=O)NCCC[C@H](NC(=O)[C@H](Cc2ccc(O)cc2)NC(C)=O)C(=O)N[C@@H](CCCNC(=N)N)C(=O)NCC(=O)N[C@@H](CC(=O)O)C(=O)N[C@@H](CCCNC(=O)CNN)C(=O)N[C@@H](CO)C(=O)N[C@@H](Cc2c[nH]c3ccccc23)C(N)=O)cc1`, the ring closure, overall yield in series [1] (29-membered ring) was found to be 13.5%.

Molecule `CC[C@H](C)[C@H](NC(=O)[C@H](CCCNC(=O)CCC(=O)CCC(C)=O)NC(=O)[C@H](CCCNC(=N)N)NC(=O)CNC(=O)[C@H](CCCCN)NC(=O)[C@H](CC(C)C)NC(=O)[C@H](Cc1c[nH]cn1)NC(=O)CNC(=O)[C@@H]1CCCN1C(C)=O)C(=O)NCC(=O)N[C@@H](CC(C)C)C(=O)N[C@@H](Cc1c[nH]c2ccccc12)C(=O)N[C@@H](Cc1ccc(O)cc1)C(=O)N[C@@H](C)C(=O)N[C@@H](CCCNC(=O)CNN)C(=O)N[C@@H](CCCCN)C(=O)N[C@@H](CCC(N)=O)C(=O)NCC(=O)N[C@@H](CCC(N)=O)C(=O)N[C@@H](CCCCN)C(=O)N[C@@H](CC(N)=O)C(=O)N[C@@H](CCCCN)C(N)=O` yielded a ring closure, overall yield in series [1] (38-membered ring) of 16.8%.

In series [1] (38-membered ring), `COc1ccc(C(=O)CCC(=O)CCC(=O)NCCC[C@H](NC(C)=O)C(=O)N[C@@H](Cc2c[nH]c3ccccc23)C(=O)N[C@@H](CCCNC(=N)N)C(=O)NCC(=O)N[C@@H](CC(=O)O)C(=O)N[C@@H](Cc2ccc(O)cc2)C(=O)N[C@@H](CO)C(=O)N[C@@H](CCCNC(=O)CNN)C(N)=O)cc1` gave a ring closure, overall yield of 13.9%.

Turning to `CC[C@H](C)[C@H](NC(=O)[C@H](CCCNC(=O)CCC(=O)CCC(=O)c1ccc(OC)cc1)NC(=O)[C@H](CCCNC(=N)N)NC(=O)CNC(=O)[C@H](CCCCN)NC(=O)[C@H](CC(C)C)NC(=O)[C@H](Cc1c[nH]cn1)NC(=O)CNC(=O)[C@@H]1CCCN1C(C)=O)C(=O)NCC(=O)N[C@@H](CC(C)C)C(=O)N[C@@H](Cc1c[nH]c2ccccc12)C(=O)N[C@@H](Cc1ccc(O)cc1)C(=O)N[C@@H](C)C(=O)N[C@@H](CCCNC(=O)CNN)C(=O)N[C@@H](CCCCN)C(=O)N[C@@H](CCC(N)=O)C(=O)NCC(=O)N[C@@H](CCC(N)=O)C(=O)N[C@@H](CCCCN)C(=O)N[C@@H](CC(N)=O)C(=O)N[C@@H](CCCCN)C(N)=O`, the ring closure, overall yield in series [1] (38-membered ring) amounted to 17.1%.

`CC[C@H](C)[C@H](NC(=O)[C@H](CCC(=O)O)NC(=O)[C@H](CCCNC(=N)N)NC(=O)CNC(=O)[C@H](CCCCN)NC(=O)[C@H](CC(C)C)NC(=O)[C@H](Cc1c[nH]cn1)NC(=O)CNC(=O)[C@@H]1CCCN1C(C)=O)C(=O)NCC(=O)N[C@@H](CC(C)C)C(=O)N[C@@H](Cc1c[nH]c2ccccc12)C(=O)N[C@@H](Cc1ccc(O)cc1)C(=O)N[C@@H](C)C(=O)N[C@@H](CCCNC(=O)CNN)C(=O)N[C@@H](CCCCN)C(=O)N[C@@H](CCC(N)=O)C(=O)NCC(=O)N[C@@H](CCCNC(=O)CCC(=O)CCC(C)=O)C(=O)N[C@@H](CCCCN)C(=O)N[C@@H](CC(N)=O)C(=O)N[C@@H](CCCCN)C(N)=O` had a ring closure, overall yield in series [1] (29-membered ring) of 18.2%.

In series [1] (29-membered ring), `CC[C@H](C)[C@H](NC(=O)[C@H](CCC(=O)O)NC(=O)[C@H](CCCNC(=N)N)NC(=O)CNC(=O)[C@H](CCCCN)NC(=O)[C@H](CC(C)C)NC(=O)[C@H](Cc1c[nH]cn1)NC(=O)CNC(=O)[C@@H]1CCCN1C(C)=O)C(=O)NCC(=O)N[C@@H](CC(C)C)C(=O)N[C@@H](Cc1c[nH]c2ccccc12)C(=O)N[C@@H](Cc1ccc(O)cc1)C(=O)N[C@@H](C)C(=O)N[C@@H](CCCNC(=O)CNN)C(=O)N[C@@H](CCCCN)C(=O)N[C@@H](CCC(N)=O)C(=O)NCC(=O)N[C@@H](CCCNC(=O)CCC(=O)CCC(=O)c1ccc(OC)cc1)C(=O)N[C@@H](CCCCN)C(=O)N[C@@H](CC(N)=O)C(=O)N[C@@H](CCCCN)C(N)=O` gave a ring closure, overall yield of 10.9%.

`CC[C@H](C)[C@H](NC(=O)[C@H](CCCNC(=O)CNN)NC(=O)c1ccc(NC(C)=O)cc1)C(=O)N[C@@H](C)C(=O)N[C@@H](C)C(=O)N[C@@H](CC(C)C)C(=O)N[C@@H](CCCCN)C(=O)N[C@@H](CCC(=O)O)C(=O)N[C@@H](CCCCN)C(=O)N[C@H](C(=O)N[C@@H](CCCNC(=O)CNN)C(=O)N[C@@H](C)C(=O)N[C@@H](CC(C)C)C(=O)N[C@@H](CCCCN)C(=O)N[C@@H](CCCNC(=O)CCC(=O)CCC(C)=O)C(=O)N[C@@H](CCCCN)C(=O)N[C@H](C(=O)N[C@@H](C)C(=O)N[C@@H](C)C(=O)N[C@@H](CC(C)C)C(=O)N[C@@H](CCCCN)C(=O)N[C@@H](CCC(=O)O)C(N)=O)[C@@H](C)CC)[C@@H](C)CC`: the ring closure, overall yield in series [1] (29-membered ring) came out at 6.2%.
